From patent US7897620B2, “Methods of using anti-inflammatory compounds” (Cambridge Enterprise Limited, priority 2007, dated 2011)
Where two headings read alike, the source gives them in different places.

Tests used:
[1] = tested on: RANTES induced THP-1 cell migration; test: ChemoTx transwell migration assay, RANTES induced migration of THP-1 cells; format: cell-based; settings: Homo sapiens, maximal dose of chemoattractant, read-out: ED50 RANTES
Method: In principle, this assay consists of two chambers separated by a porous membrane. The chemoattractant is placed in the lower compartment and the cells are placed in the upper compartment. After incubation for a period at 37° C. the cells move towards the chemoattractant, and the number of cells in the lower compartment is proportional to the chemoattractant activity (relative to a series of controls).
The THP-1 cell line (European Cell Culture Collection) were used as the leukocyte cell population.
First, the cell suspension to be placed in the upper compartment is prepared. The THP-1 cells are pelleted by centrifugation (770×g; 4 mins) and washed with Geys Balanced Salt Solution with 1 mg/ml BSA (GBSS+BSA). This wash is then repeated, and the cells repelleted before being resuspended in a small volume of GBSS+BSA for counting, for example using a standard haemocytometer.
The volume of GBSS+BSA is then adjusted depending on the number of cells present so that the cells are at final density of 4.45×10^6 cells per ml of GBSS+BSA. This ensures that there are […] THP-1 cells in each 25 μl of the solution that will be placed in the upper chamber of the plate.
To test a single compound for its ability to inhibit chemokine induced migration, it is necessary to prepare two lots of cells. The suspension of THP-1 cells at 4.45×10^6 cells/ml is divided into two pots. […]

[2] = Distribution of compounds into tissues and unchanged parent in urine 24 hrs after a single oral dose; format: in vivo; settings: rat; for concentration at 24 h: 24 hrs after single oral dose 3 mg/kg in 1% CMC, nd = not detected, LLOQ 2.4 ng/g
Method: Urine was collected from rats exposed to a single oral dose (3 mg/kg in 1% CMC) of each compound over a 24 hour period in metabolic cages. The pooled urine sample was then subjected to full scan mass spectral analysis, using the same LC-MS conditions as described in example 1 above. Further MS-MS analysis of the product ions was then performed, and likely fragmentations/re-arrangements assigned from the publicly available Metabolite ID database.
To provide a quantitative estimate of the degree of metabolism suffered by each of the compounds tested, the amount of unchanged parent compound in urine was measured using the same validated LC-MS assay described in example 1, using (S)-3-(2′,2′-dimethylpropanoylamino)-caprolactam as an internal standard. In addition, the level of compounds in various target tissues was also determined.

## O=C1NCCCC[C@@H]1NC(=O)C12CC3CC(CC(C3)C1)C2 [(II), 3-(adamantane-1-carbonylamino)-caprolactam]
[1]
  EC50: 0.1 nM

## CC(C)(C)S(=O)(=O)N[C@H]1CCCCNC1=O [(IV), 3-(1′,1′-dimethylethylsulfonylamino)-caprolactam]
[2]; 24 hrs, single oral dose 3 mg/kg
  fraction of the injected dose recovered unchanged in urine: less than 10%

## CC(C)(C)C(=O)N[C@H]1CCCNC1=O [Compound (I′), 3-(2′,2′-dimethylpropanoylamino)-tetrahydropyridin-2-one]
[2]; brain, read-out: Level of compound in Brain
  concentration at 24 h: 1.6 ng/g
[2]; heart, read-out: Level of compound in Heart
  concentration at 24 h: 5.3 ng/g
[2]; kidney, read-out: Level of compound in Kidney
  concentration at 24 h: 5.1 ng/g
[2]; liver, read-out: Level of compound in Liver
  concentration at 24 h: 3.6 ng/g
[2]; lung, read-out: Level of compound in Lung
  concentration at 24 h: 21.9 ng/g
[2]; muscle, read-out: Level of compound in Muscle
  concentration at 24 h: 3.1 ng/g
